Measured values reported in ChEMBL document CHEMBL3832761, “MMV Pathogen Box Bioactivity Data” (2017).
Values after ≈ are worked out from the molar mass of the structure shown.

Legend:
Assay type in all cases: functional
[1] = test system: Mycobacterium tuberculosis; experiment: AntiMycobacterium tuberculosis activity 1-week GAST/Fe MIC (uM); settings: 168 h
[2] = test system: Mycobacterium tuberculosis; experiment: AntiMycobacterium tuberculosis activity 2-week Alamar Blue 7H9/ADC/Tw MIC (uM); settings: 336 h
[3] = test system: Mycobacterium tuberculosis; experiment: AntiMycobacterium tuberculosis activity 1-week 7H9/cholesterol/BSA/Tx MIC (uM); settings: 168 h
[4] = test system: Mycobacterium tuberculosis; experiment: AntiMycobacterium tuberculosis activity day 21 in 7H9/2.5mM butyrate/pH6/0.1mM nitrite MIC90 (uM); settings: 504 h
[5] = test system: Mycobacterium tuberculosis; experiment: AntiMycobacterium tuberculosis activity 2-week 7H9/DPPC/cholesterol/BSA/Tx MIC (uM); settings: 336 h
[6] = test system: Mycobacterium tuberculosis; experiment: AntiMycobacterium tuberculosis activity 1-week 7H9/DPPC/cholesterol/BSA/Tx MIC (uM); settings: 168 h
[7] = test system: Mycobacterium tuberculosis; experiment: AntiMycobacterium tuberculosis activity 2-week GAST/Fe MIC (uM); settings: 336 h
[8] = test system: Mycobacterium tuberculosis; experiment: AntiMycobacterium tuberculosis activity day 21 MIC99 in 7H9/2.5mM butyrate/pH6/0.1mM nitrite MIC99 (uM); settings: 504 h
[9] = test system: Mycobacterium tuberculosis; experiment: (§1) AntiMycobacterium tuberculosis activity day 10 in 7H9/2.5mM butyrate/pH6/0.1mM nitrite MIC90 (uM); settings: 240 h
[10] = test system: Mycobacterium tuberculosis; experiment: as §1; settings: 240 h; remark: listed apart in the source
[11] = test system: HepG2; experiment: HepG2 glucose CC50 (uM) Cytotoxicity
[12] = test system: Mycobacterium tuberculosis; experiment: AntiMycobacterium tuberculosis activity 2-week 7H9/glucose/BSA/Tx MIC (uM); settings: 336 h
[13] = test system: Mycobacterium tuberculosis; experiment: AntiMycobacterium tuberculosis activity 1-week 7H9/glucose/BSA/Tx MIC (uM); settings: 168 h
[14] = test system: Mycobacterium tuberculosis; experiment: AntiMycobacterium tuberculosis activity 1-week 7H9/ADC/Tw MIC (uM); settings: 168 h
[15] = test system: HepG2; experiment: HepG2 galactose CC50 (uM) Cytotoxicity
[16] = test system: Mycobacterium tuberculosis; experiment: AntiMycobacterium tuberculosis activity 2-week Alamar Blue 7H9/cholesterol/BSA/Tx MIC (uM); settings: 336 h
[17] = test system: Mycobacterium tuberculosis; experiment: AntiMycobacterium tuberculosis activity 2-week 7H9/ADC/Tw MIC (uM); settings: 336 h

Row | Compound | MIC [1] [µM] | MIC [2] [µM] | MIC [3] [µM] | MIC90 [4] [µM] | MIC [5] [µM] | MIC [6] [µM] | MIC [7] [µM] | MIC [8] [µM] | MIC90 [9] [µM] | MIC90 [10] [µM] | CC50 ([11]; Homo sapiens, HepG2) [µM] | MIC [12] [µM] | MIC [13] [µM] | MIC [14] [µM] | CC50 ([15]; Homo sapiens, HepG2) [µM] | MIC [16] [µM] | MIC [17] [µM] | CC50 [11] [µM] | CC50 [15] [µM]
1 | Clc1ccc(CCNc2cc(-c3ccccc3)nc3ncnn23)cc1 | 0.3 (≈ 0.105 µg/mL) | 6.25 (≈ 2.19 µg/mL) | 3.13 (≈ 1.09 µg/mL) | 25 (≈ 8.75 µg/mL) | > 50 | 4.7 (≈ 1.64 µg/mL) | 1.2 (≈ 0.42 µg/mL) | > 50 | > 50 | 6.25 (≈ 2.19 µg/mL) | > 50 | > 50 | 50 (≈ 17.5 µg/mL) | 50 (≈ 17.5 µg/mL) | > 50 | 3.13 (≈ 1.09 µg/mL) | > 50 | – | –
2 | CS(=O)(=O)Cc1nc2ccccc2oc1=O | 0.78 (≈ 0.187 µg/mL) | 6.25 (≈ 1.5 µg/mL) | 6.25 (≈ 1.5 µg/mL) | 3.12 (≈ 0.746 µg/mL) | 6.25 (≈ 1.5 µg/mL) | 6.25 (≈ 1.5 µg/mL) | 1.56 (≈ 0.373 µg/mL) | 12.5 (≈ 2.99 µg/mL) | 12.5 (≈ 2.99 µg/mL) | 3.12 (≈ 0.746 µg/mL) | > 50 | 9.4 (≈ 2.25 µg/mL) | 9.4 (≈ 2.25 µg/mL) | 19 (≈ 4.55 µg/mL) | > 50 | 6.25 (≈ 1.5 µg/mL) | 9.4 (≈ 2.25 µg/mL) | – | –
3 | COc1cccc(-n2nnnc2S(=O)(=O)Cc2ccccc2)c1 | 1.2 (≈ 0.396 µg/mL) | 25 (≈ 8.26 µg/mL) | 25 (≈ 8.26 µg/mL) | 6.25 (≈ 2.06 µg/mL) | 50 (≈ 16.5 µg/mL) | 25 (≈ 8.26 µg/mL) | 1.56 (≈ 0.515 µg/mL) | 6.25 (≈ 2.06 µg/mL) | 6.25 (≈ 2.06 µg/mL) | 3.12 (≈ 1.03 µg/mL) | 19.1 | 37 (≈ 12.2 µg/mL) | 12.5 (≈ 4.13 µg/mL) | 25 (≈ 8.26 µg/mL) | 28.5 | 50 (≈ 16.5 µg/mL) | 37 (≈ 12.2 µg/mL) | 17.9 | 30.6
4 | c1ccc(-c2nc(NC3CCCCC3)cc(C3CC3)n2)nc1 | 25 (≈ 7.36 µg/mL) | 37 (≈ 10.9 µg/mL) | 19 (≈ 5.59 µg/mL) | 50 (≈ 14.7 µg/mL) | 50 (≈ 14.7 µg/mL) | 25 (≈ 7.36 µg/mL) | 25 (≈ 7.36 µg/mL) | > 50 | 50 (≈ 14.7 µg/mL) | 25 (≈ 7.36 µg/mL) | > 50 | 50 (≈ 14.7 µg/mL) | 37 (≈ 10.9 µg/mL) | 37 (≈ 10.9 µg/mL) | > 50 | 9.4 (≈ 2.77 µg/mL) | 50 (≈ 14.7 µg/mL) | – | –
5 | Cc1ccc2nc(C)c(-c3ccn(Cc4ccccc4)n3)n2c1 | 0.78 (≈ 0.236 µg/mL) | 19 (≈ 5.75 µg/mL) | 9.4 (≈ 2.84 µg/mL) | 50 (≈ 15.1 µg/mL) | 37 (≈ 11.2 µg/mL) | 12.5 (≈ 3.78 µg/mL) | 0.78 (≈ 0.236 µg/mL) | > 50 | > 50 | 6.25 (≈ 1.89 µg/mL) | 35.5 | ≥ 50 | 50 (≈ 15.1 µg/mL) | 50 (≈ 15.1 µg/mL) | 36.1 | 4.7 (≈ 1.42 µg/mL) | > 50 | > 50 | 28.6
6 | Cc1ccccc1CN1CCC(O)(c2ccc(Cl)c(C(F)(F)F)c2)CC1 | 0.3 (≈ 0.115 µg/mL) | 0.39 (≈ 0.15 µg/mL) | 0.6 (≈ 0.23 µg/mL) | 3.12 (≈ 1.2 µg/mL) | 0.78 (≈ 0.299 µg/mL) | 0.6 (≈ 0.23 µg/mL) | 0.3 (≈ 0.115 µg/mL) | 25 (≈ 9.6 µg/mL) | 12.5 (≈ 4.8 µg/mL) | 3.12 (≈ 1.2 µg/mL) | > 50 | 1.2 (≈ 0.461 µg/mL) | 0.39 (≈ 0.15 µg/mL) | 0.39 (≈ 0.15 µg/mL) | > 50 | 0.78 (≈ 0.299 µg/mL) | 0.39 (≈ 0.15 µg/mL) | – | –
7 | COc1cccc(NC(=O)c2c(NC(=O)c3cccnc3)sc3c2CCC3)c1 | 9.4 (≈ 3.7 µg/mL) | 12.5 (≈ 4.92 µg/mL) | 12.5 (≈ 4.92 µg/mL) | > 50 | 50 (≈ 19.7 µg/mL) | 9.4 (≈ 3.7 µg/mL) | 12.5 (≈ 4.92 µg/mL) | > 50 | > 50 | 3.12 (≈ 1.23 µg/mL) | > 50 | 6.25 (≈ 2.46 µg/mL) | 4.7 (≈ 1.85 µg/mL) | 12.5 (≈ 4.92 µg/mL) | > 50 | > 50 | 12.5 (≈ 4.92 µg/mL) | – | –
8 | O=[N+]([O-])c1cn2c(n1)OC[C@@H](OCc1ccc(OC(F)(F)F)cc1)C2 [PRETOMANID] | 0.2 (≈ 0.0719 µg/mL) | 0.39 (≈ 0.14 µg/mL) | 0.1 (≈ 0.0359 µg/mL) | 0.78 (≈ 0.28 µg/mL) | 0.2 (≈ 0.0719 µg/mL) | 0.2 (≈ 0.0719 µg/mL) | 0.15 (≈ 0.0539 µg/mL) | 3.1 (≈ 1.11 µg/mL) | 0.78 (≈ 0.28 µg/mL) | 0.39 (≈ 0.14 µg/mL) | > 50 | 0.6 (≈ 0.216 µg/mL) | 0.39 (≈ 0.14 µg/mL) | 0.39 (≈ 0.14 µg/mL) | > 50 | 0.3 (≈ 0.108 µg/mL) | 0.39 (≈ 0.14 µg/mL) | – | –
9 | COc1cc(CN2CCC3(C=Cc4ccccc43)CC2)cc2c1OCO2 | 0.6 (≈ 0.21 µg/mL) | 0.78 (≈ 0.273 µg/mL) | 1.56 (≈ 0.545 µg/mL) | 6.25 (≈ 2.18 µg/mL) | 2.3 (≈ 0.804 µg/mL) | 1.56 (≈ 0.545 µg/mL) | 0.78 (≈ 0.273 µg/mL) | 12.5 (≈ 4.37 µg/mL) | 12.5 (≈ 4.37 µg/mL) | 6.25 (≈ 2.18 µg/mL) | > 50 | 2.3 (≈ 0.804 µg/mL) | 2.3 (≈ 0.804 µg/mL) | 1.2 (≈ 0.419 µg/mL) | > 50 | 2.3 (≈ 0.804 µg/mL) | 0.78 (≈ 0.273 µg/mL) | – | –
